# Measurements: patent US20250009844A1, “MATURATION OF MUCOSAL DEFENSE AND GUT/LUNG FUNCTION IN THE PRETERM INFANT” (Novozymes A/S, priority 2017, published 2025)
# No end group written: not given here.
# Experiments:
# BALB/c mice = experiment: Therapeutic intervention in murine house dust mite/Freund's complete adjuvant driven model of allergic asthma (Example 6); assay type: in vivo; settings: for Increase of airway resistance (AHR): vs HDM challenged vehicle
# Method: Treatment regime: Female 7-10 weeks old BALB/c mice were randomly allocated into 6 study groups one day prior to study start and subcutaneously (SC) sensitized to house dust mite (100 μg HDM in 200 μL saline plus Freund's complete adjuvant in 0.9% saline). Mice were then intranasally (IN) challenged with HDM on day 14 (HDM 25 μg in 50 μL of saline). Dexamethasone was administered orally (1 mg/kg BID; 50 μL phosphate buffered saline (PBS)) on day 14. hBD-2 was administered IN or orally (1.7 mg/kg TID IN; 0.4 mg/kg TID IN; 0.4 mg/kg TID orally, 50 μL phosphate buffered saline) on day 14. The initial dose was administered 60 minutes prior to challenge, and the subsequent two doses approximately 6 hours apart (FIG. 3).
# Airway inflammation: At 48 hours post challenge, bronchoalveolar lavage was performed washing the lungs with 3 volumes of cold PBS (0.4; 0.3 and 0.3 mL, total 1 mL). Total and differential leucocyte cell counts were determined on an automated haematological analyser Sysmex XT-2000iV.
# Data are represented as airway resistance at […] methacholine and as dose responsive curves. Lung sampling for cytokine analysis: After completion of every BAL, lungs were removed from the thorax, snap frozen in liquid nitrogen and stored frozen at −80 degrees Celsius until analysis of cytokine concentration of IL-1β, TNF-α, IL-6, IL-10 and IFNγ by ELISA.
# [1] = test system: microbiota of the intestine; experiment: Therapeutic high fat diet model in diet-induced obese mice, 16S microbial analyses (Example 2); assay type: in vivo
# Text: The overall design of the study is shown in FIG. 1, lower panel, “Therapeutic study”. Mice and diets. The experiment elucidates the effect of hBD-2 and HD5 on the microbiota in diet-induced obese mice. A run-in period of 13 weeks where mice were fed a very HFD (60% energy from fat) preceded the intervention. Only mice meeting the criteria of a minimum of 12 gram weight gain (approximately 50% of initial bodyweight) during the run-in period were included in the final analyses. […] They were exposed to all experimental tests, but excluded from the analyses.
# Treatment regimen. Before the intervention all mice were MR scanned. Cages of mice were allocated to experimental groups based on their fat mass. All subsequent measures were paired with data from the same mouse before the intervention. A LFD (low fat diet) reference group was running in parallel. As controls for the intervention 2 additional groups were included: a) very HFD and b) LFD. Experimental mice stayed on the very HFD during the intervention. The mice were on the experimental diet for 10 weeks. They were co-housed throughout the experiment, 4 mice per cage, 3 cages per group. All tests ran over 3 days, 1 cage per group per day.
# Microbial analyses were carried out to study the microbiota of the intestine. Longitudinal 16S characterization was conducted on 4 paired samples from 60 mice, 240 samples in total. Each mouse was sampled prior to diet change, 1 week post diet change, 4 weeks post diet change and at termination, thus ensuring a thorough characterization of the faecal microbiota as a result of defensin treatment.
# [2] = hBD-2 intranasal, both doses, dexamethasone 1 mg/kg BID orally
substance,measurement,setting,value
human beta defensin 2 (GIGDPVTCLKSGAICHPVFCPRRYKQIGTCGLPGTKCCKKP; ends and bridges not checked; cysteine pairing not given here; listed as Homo sapiens) [hBD-2],Total cell count in BALF,"BALB/c mice; 48 hours post challenge, hBD-2 intranasal, both doses (0.4 mg/kg/day TID and 1.7 mg/kg/day TID), dexamethasone 1 mg/kg BID orally","significantly inhibited total, neutrophil and macrophage cell counts"
same,Eosinophil count in BALF,BALB/c mice; [2],trend towards lowering of eosinophils
same,Macrophage count in BALF,BALB/c mice; [2],"significantly inhibited total, neutrophil and macrophage cell counts"
same,Neutrophil count in BALF,BALB/c mice; [2],"significantly inhibited total, neutrophil and macrophage cell counts"
same,TNF-α level in lung tissue homogenate,BALB/c mice; intranasal hBD-2,not significantly different from the control
same,Decrease of pulmonary compliance,BALB/c mice; intranasal hBD-2 TID on day 14,effectively inhibited
same,Increase of airway resistance (AHR),BALB/c mice; intranasal hBD-2 TID on day 14,effectively inhibited increase of airway resistance
same,Decrease of pulmonary compliance,BALB/c mice; oral hBD-2 0.4 mg/kg TID on day 14,effectively inhibited
same,Increase of airway resistance (AHR),"BALB/c mice; oral on day 14: hBD-2 0.4 mg/kg TID, dexamethasone 1 mg/kg BID",effectively inhibited increase of airway resistance
same,TNF-α level in lung tissue homogenate,"BALB/c mice; oral: hBD-2 0.4 mg/kg TID, dexamethasone 1 mg/kg BID, vs HDM/vehicle control",significantly reduced TNF-α
same,Relative abundance of Bifidobacteriaceae,"[1]; colon, hBD-2 p<0.04",dramatically and statistically significant increased the relative abundance of Bifidobacteriaceae
same,Abundance of Alloprevotella,"[1]; colon, therapeutic intervention, HD5 p<0.02",no influence on Alloprevotella abundance
same,Relative abundance of Bifidobacteriaceae,"[1]; small intestine, hBD-2 p<0.0001",dramatically and statistically significant increased the relative abundance of Bifidobacteriaceae
